Data on two compounds can be found in patent EP0561516A1, “Process for stabilizing chlorinated polyethylene against degradation” (THE DOW CHEMICAL COMPANY, priority 1992, dated 1993).

Holding throughout (type): physicochemical
Data set [1] in a line: Extension at break after roll milling, dry blending versus liquid-liquid addition of antioxidant. The settings on record: with calcium stearate, epoxidized soja bean oil, titanium dioxide. As for the experimental part: In order to illustrate the advantages of liquid-liquid blending over dry blending, a sample of CPE containing 36% chlorine, having a density of 1.18 g/cm³, a weight average molecular weight of 2x10⁵ and a cristallinity of 0.5% is mixed in a food processor with 1% calcium stearate, 1% epoxidized soja bean oil and 0.5% titanium dioxide, based on the weight of the CPE. The mixture is formed into a sheet of 3 mm thickness on a roll mill at 190 °C, and its tensile properties are measured. The extension at break is a measure of the molecular weight of a polymer. The material breaks at 596% extension.
Another sample of the same material is milled for 15 minutes at 190 °C before a sheet of 3 mm thickness is formed.
The antioxidant IRGANOX 1076 (trademark) is added to the mixture as described above at an amount of 0.25% by the weight of the CPE using the food mixer. The resulting mixture is milled for 15 minutes. The extension at break of a sheet of 3 mm thickness, prepared as indicated above, is 740%, showing that the degree of chain scission is reduced by the addition of the antioxidant. (comparative run, but not State of the Art.)
To an aqueous slurry containing 16 % of the CPE, based on the total weight of the slurry, 0.25% IRGANOX 1076 (trademark), by the weight of CPE is added in the manner described in Example 1. The mixture is dried as described in Example 1. […]

Data set [2] in a line: Total organic carbon (TOC) of the slurry, test of antioxidant deposition on CPE. The settings on record: 60 minutes after addition of 0.5% antioxidant to the CPE slurry; 11.8 ppm before addition. On the procedure: In order to test that the antioxidant has actually deposited on the CPE, rather than on the reactor walls, the total organic carbon (TOC) of the slurry is measured, and a glass slide placed in the reactor during the test is investigated for deposition of antioxidant.

A short description of data set [3]: Thermal degradation (weight loss) by TGA at 180 °C in nitrogen purge. The settings on record: TGA 180 °C, 60 minutes, 0.3% antioxidant added to CPE slurry heated to 80 °C for 90 minutes. On the procedure: The thermal degradation (weight loss) of the following samples is measured by TGA at 180 °C (in a nitrogen purge during 60 minutes).

With `CCCCCCCCCCCCCCCCCCOC(=O)CCc1cc(C(C)(C)C)c(O)c(C(C)(C)C)c1` [IRGANOX 1076, Octadecyl 3,5-di-tert-butyl-4-hydroxyhydrocinnamate], the extension at break came out at 704% in data set [1] (0.25% antioxidant added to aqueous slurry with 16% CPE (method of the invention), 15 minutes milling) and 740% in data set [1] (0.25% antioxidant dry-blended in food mixer (comparative run), milled 15 minutes at 190 °C, sheet of 3 mm). Further, the “total organic carbon (TOC) of the slurry” value in data set [2] was 10.0 ppm.

As for `Cc1cc(CCC(=O)OCCOCCOCCOC(=O)CCc2cc(C)c(O)c(C(C)(C)C)c2)cc(C(C)(C)C)c1O` [IRGANOX 245, triethylene glycol bis [3-tert-butyl-4-hydroxy-5-methylphenyl]propionate], the “thermal degradation (weight loss)” value in data set [3] worked out at 75 ppm/min.
